Counter-ions that a name gives are not always drawn.
Columns and labels:
Assay type in all cases: in vivo, ICR mice
[1] = system: normal mice; assay: Analgetic effects on normal mice (hot plate method); conditions: 0.33 g/kg body weight, gavage 3 days; hot plate 56±0.5
Method: ICR female mice having a body weight of 18-22 g were stochastically divided into six groups according to the body weight. Before test, the temperature of the aqueous thermostat was controlled at 56±0.5[…]. One mouse was placed on the hot plate each time, and the time of licking postpedes was defined as the pain threshold of said mouse. […] The normal pain thresholds were measured again. The average value of two normal pain thresholds was used as the pain threshold of the mouse before administration. […] There were 22 mice in the normal control group, and there were 11 mice in each of other groups.

[2] = system: mice given acetic acid; assay: Stretching caused by intraperitoneal acetic acid (stretching method); conditions: 0.33 g/kg body weight, gavage 3 days; 0.6% glacial acetic acid ip; during 15 minutes
Source text: Method: ICR mice having a body weight of 18-22 g, half male and half female, were randomly divided into five groups according to the body weight, including the group of 5 g/kg body weight capsules of the present invention, the group of 2.5 g/kg body weight capsules of the present invention, the group of 1.25 g/kg body weight capsules of the present invention, the aspirin group (0.33 g/kg body weigh), and the normal control group (administered with isovolumetric normal saline). There were 19 mice in the normal control group, and there were 10-11 mice in each of other groups. The animals in the groups of administration with a drug were consecutively administered for 3 days by gavage. Except the normal control group, each mouse in other groups was administered by intraperitoneal injection with 0.1 ml/10 g body weight 0.6% glacial acetic acid at 1 h after the final administration. Then the times of stretching caused by glacial acetic acid during 15 minutes after injection were recorded.

[3] = system: mice given sodium pentobarbital; assay: Rate of falling asleep caused by intraperitoneal sodium pentobarbital; conditions: 0.33 g/kg body weight, gavage 7 days; sodium pentobarbital 35 mg/kg ip; 11 animals
Method: III. […] Method: ICR mice having a body weight of 18-22 g, half male and half female, were randomly divided into five groups according to the body weight (see Table 14 for details). The animals in the groups of administration with a drug were consecutively administered for 7 days by gavage. Mice were weighed before the last administration, and administered by intraperitoneal injection with 35 mg/kg body weight sodium pentobarbital at 1 h after the last administration. The number of animals falling asleep was recorded.

[4] = system: mice of reserpine depression model; assay: Eyelids closing (ptosis) caused by reserpine; conditions: for Number of animals which close the eyelids at 1 h after the administration, ± (semi-open eyelids) / Number of animals which close the eyelids at 1 h after the administration, − (open eyelids) / Number of animals which close the eyelids at 1 h after the administration, □ (close eyelids) / Number of animals which close the eyelids at 2 h after the administration, ± (semi-open eyelids) / Number of animals which close the eyelids at 2 h after the administration, − (open eyelids) / Number of animals which close the eyelids at 2 h after the administration, □ (close eyelids) / Number of animals which close the eyelids at 6 h after the administration, ± (semi-open eyelids) / Number of animals which close the eyelids at 6 h after the administration, − (open eyelids) / Number of animals which close the eyelids at 6 h after the administration, □ (close eyelids): gavage 22 days, reserpine 2 mg/kg ip, 15 animals; for effect on reserpine-induced ptosis (in words): P<0.01
Method: (§1) Method: ICR male mice (SPF-grade, having a body weight of 17-20 g) were stochastically divided into seven groups according to the body weight, and the administration dosages can be found in Table 1. The animals in the groups of administration with a drug were administered by gavage for 22 consecutive days. The normal control group and the reserpine control group were administered by gavage with isovolumetric distilled water (0.2 ml/10 g body weight). 2 mg/kg body weight of reserpine was administered by intraperitoneal injection on the 22nd day. After 1 h, 2 h and 6 h of injection of reserpine, animals were placed on a bracket and under observation for 15 s to record the number of animals that closed the eyelids (wherein “−” represents open eyelids; “±” represents semi-open eyelids; and “+” represents close eyelids). […] At 2 h, 4 h, and 6 h after the administration of reserpine, animals were placed at the center of a piece of circular white paper with a diameter of 7.5 cm and under observation for 15 s to record the number of animals that still remained within the circle in 15 s.

[5] = system: mice of reserpine depression model; assay: “Excircle” behaviour (akinesia) of mice treated with reserpine; conditions: for Number of animals that have excircle behaviors at 2 h, Excircle (+) / Number of animals that have excircle behaviors at 2 h, Within circle (□) / Number of animals that have excircle behaviors at 4 h, Excircle (+) / Number of animals that have excircle behaviors at 4 h, Within circle (□) / Number of animals that have excircle behaviors at 6 h, Excircle (+) / Number of animals that have excircle behaviors at 6 h, Within circle (□): gavage 22 days, reserpine 2 mg/kg ip, 15 animals; for effect on “excircle” rate of reserpine mice (in words): P<0.05 or P<0.01
Method: as §1

[6] = system: mice of reserpine depression model; assay: Body temperature of mice treated with reserpine; conditions: for Body temperature, 6 h after making models: rectal temperature; for effect on fall in body temperature caused by reserpine (in words): P<0.01
Method: Method: ICR male mice (SPF-grade, having a body weight of 18-22 g) were stochastically divided into seven groups according to the body weight, and the dosages administrated are shown in Table 7. The animals in the groups of administration with a drug were administered for 22 consecutive days, and the basal body temperature (rectal temperature) of the animals was measured before administration on the 22nd day. […] The difference values of body temperature before and after administration and the difference values of their own body temperatures were calculated so as to conduct the statistical comparison by single factor analysis of variance (H. G Vogel & W. H. Vogel, Drug Discovery and Evaluation […]Guidance for Pharmacological Assays, translated by D U Guanhua et al, [M] Beijing: Science Press, 2001.409,412). The results can be found in Tables 7 and 8.

[7] = system: mice of reserpine depression model; assay: NA, DA and 5-HT in the brain tissue of reserpine mice (fluorophotometry); conditions: for 5-HT in the brain tissue of reserpine mice / DA in the brain tissue of reserpine mice / NA in the brain tissue of reserpine mice: gavage 25 days, reserpine 1 mg/kg ip
Method: The animals in the groups of administration with a drug were administered by gavage for 25 consecutive days. The normal control group and reserpine control group were administered with isovolumetric distilled water. On the 23rd day of the test, 1 mg/kg body weight of reserpine was ip administered for each group except the normal control group, and each group receiving reserpine was administered once more. At 1 hour after the last administration of reserpine, the heads of mice were cut off and the brain tissues were taken out, frozen with dry ice and preserved at −20□. The content of noradrenaline (NA), dopamine (DA) and 5-hydroxytryptamine (5-HT) in the cerebellar tissue homogenate was measured respectively by means of fluorophotometry.
(§2) At the end of the test, the heads of mice were rapidly cut off and the brain tissues were immediately taken out, promptly frozen with dry ice and moved into a refrigerator having a temperature of −20□. The tissue was defreezed before homogenization. The cerebellum, medulla oblongata and olfactory bulb were removed, and then 300 mg brain tissue was weighed with a analytical balance. Then 10 times amount by volume of acidic n-butanol (prepared by saturating 100 ml re-steamed n-butanol with NaCl, and mixing with 0.85 ml strong hydrochloric acid) were added into the brain tissue for homogenization.
(§3) The brain tissue homogenate was centrifugated (2,000 rpm) for 5 min. Then 2.5 ml supernatant was taken out and placed in centrifuge tube with a plug containing 1 ml 0.1N HC1 and 5 ml n-heptane. The centrifuge tube was placed on the KS vibrator, oscillated for 5 min and centrifugated (2,500 rpm) for 5 min. 6 to ml upper organic phase was placed into the tube having a plug and containing 0.6 ml 0.033 M NaHCO3 so as to extract 5-HIAA. Then 0.5 ml and 0.4 ml were respectively taken out from the lower aqueous phase, wherein the former was used to measure NA and DA, and the latter was used to measure 5-HT.
(§4) Internal standard tube treatment: 9 ml of the acidic n-butanol homogenate was averagely divided into 3 tubes, to two of them, 40 μl mixed standard solution (respectively containing 5 μg/ml standard substances of NA, DA and 5-HT) was added.

[8] = system: normal mice; assay: NA, DA and 5-HT in the brain tissue of normal mice (fluorophotometry); conditions: for 5-HT in the brain tissue of normal mice / DA in the brain tissue of normal mice / NA in the brain tissue of normal mice: gavage 25 days, 80 min after final administration; for effect on 5-HT in brain tissue of normal mice (in words) / effect on NA and DA in brain tissue of normal mice (in words): positive control, P<0.01
Method: Method: ICR male mice; and the groups and administration doses can be found in Table 10. The animals in the groups of administration with a drug were administered by gavage for 25 consecutive days. At 80 min after the final administration, the heads of mice were cut off and the brain tissues were taken out, frozen with dry ice and preserved at −20□. The content of noradrenaline (NA), dopamine (DA) and 5-hydroxytryptamine (5-HT) in the whole brain homogenate without cerebellum was measured respectively by means of the fluorophotometry^[2].
as §2, §3, §4
(3) Measurement: The fluorophotometry was conducted on NA, DA and 5-HT (KUANG Peigen, ZHOU Xinfu and XU Bo, Extraction of Monoamine Neurotransmitters in Brain Tissue and Measurement of the Neurotransmitters by Means of Fluorophotometry, Academic Journal of PLA Postgraduate Medical School, 1982, 3(2) 181-185).

[9] = system: 5-HTP model mice; assay: Shaking-head behavior induced by 5-hydroxytryptophane (5-HTP) after pargyline; conditions: 14 mg/kg body weight; P<0.01
Source text: (IV) Effects of Capsules of the Present Invention on Shaking-Head Behavior Induced by 5-hydroxytryptophane (5-HTP) 1. Principle: according to the monoamine hypothesis on the occurrence of depression, the function of antidepressant lies in that it can enhance the functions of the noradrenergic and/or serotonergic nerve. A great variety of antidepressant may enhance the effect of 5-HT by blocking the reuptake of 5-HT. 5-HTP may be used as a precursor of 5-HT, and monoamine oxidase inhibitor—pargyline hydrochloride may inhibit the enzymatic degradation thereof. The characteristic symptom—shaking-head behavior is obvious on mice. The enhancement of shaking-head behavior of mice after administration of the test drug may be used as an evidence to the fact that the inhibition of 5-HT uptaking function is the anti-depression mechanism. 2. Method: ICR male mice (20±1 g) were stochastically divided into seven groups according to the body weight, and each group comprises 12 animals. The animals in the groups of administration with a drug were consecutively administered by gavage for 21 days. […] Except the normal control group, other groups were administered with 20 mg/kg body weight of 5-HTP by intraperitoneal injection 90 min after injection of pargyline; and the times of shaking-head behavior were recorded in the following 10 minutes.

[10] = 0.014 g/kg body weight, 22 days, reserpine 2 mg/kg ip
[11] = 0.01 g/kg body weight, 5 animals
[12] = 0.01 g/kg body weight per Table 10
[13] = 0.050 g/kg body weight, 22 days, reserpine 2 mg/kg ip
[14] = 0.050 g/kg body weight, 8 animals
[15] = 0.05 g/kg body weight per Table 10

CC(=O)Oc1ccccc1C(=O)O [Aspirin]
Pain threshold, 1 h after admi. [1]: 18.27 ± 12.52 S | Pain threshold, 3 h after admi. [1]: 15.27 ± 2.57 S | Pain threshold, 5 h after admi. [1]: 16.09 ± 4.70 S | Stretching times [2]: 12.00 ± 9.20 | Number of animals falling asleep, Falling asleep [3]: 5 | Number of animals falling asleep, Not falling asleep [3]: 6

CNCCC(Oc1ccc(C(F)(F)F)cc1)c1ccccc1 (centres unmarked) [Fluose fine hydrochloride, Fluoxetine Hydrochloride]
Number of animals which close the eyelids at 1 h after the administration, ± (semi-open eyelids) ([4]; 0.014 g/kg body weight): 8 | Number of animals which close the eyelids at 1 h after the administration, − (open eyelids) ([4]; 0.014 g/kg body weight): 7 | Number of animals which close the eyelids at 1 h after the administration, □ (close eyelids) ([4]; 0.014 g/kg body weight): 0 | Number of animals which close the eyelids at 2 h after the administration, ± (semi-open eyelids) ([4]; 0.014 g/kg body weight): 6 | Number of animals which close the eyelids at 2 h after the administration, − (open eyelids) ([4]; 0.014 g/kg body weight): 5 | Number of animals which close the eyelids at 2 h after the administration, □ (close eyelids) ([4]; 0.014 g/kg body weight): 4 | Number of animals which close the eyelids at 6 h after the administration, ± (semi-open eyelids) ([4]; 0.014 g/kg body weight): 11 | Number of animals which close the eyelids at 6 h after the administration, − (open eyelids) ([4]; 0.014 g/kg body weight): 2 | Number of animals which close the eyelids at 6 h after the administration, □ (close eyelids) ([4]; 0.014 g/kg body weight): 2 | effect on reserpine-induced ptosis (in words) ([4]; 14 mg/kg body weight): antagonistic against reserpine-induced ptosis | Number of animals that have excircle behaviors at 2 h, Excircle (+) ([5]; 0.014 g/kg body weight): 15 | Number of animals that have excircle behaviors at 2 h, Within circle (□) ([5]; 0.014 g/kg body weight): 0 | Number of animals that have excircle behaviors at 4 h, Excircle (+) ([5]; 0.014 g/kg body weight): 15 | Number of animals that have excircle behaviors at 4 h, Within circle (□) ([5]; 0.014 g/kg body weight): 0 | Number of animals that have excircle behaviors at 6 h, Excircle (+) ([5]; 0.014 g/kg body weight): 14 | Number of animals that have excircle behaviors at 6 h, Within circle (□) ([5]; 0.014 g/kg body weight): 1 | effect on “excircle” rate of reserpine mice (in words) ([5]; 14 mg/kg body weight): notably increase the “excircle” rate | Body temperature difference, 6 h after making models [6, 10]: 2.66 ± 1.11 □ | Body temperature difference, 24 h after making models [6, 10]: 2.27 ± 1.00 □ | Body temperature, 6 h after making models [6, 10]: 35.0 ± 0.87 □ | effect on fall in body temperature caused by reserpine (in words) ([6]; 14 mg/kg body weight): notably antagonize the fall in body temperature | 5-HT in the brain tissue of reserpine mice [7, 11]: 707.25 ± 115.94 ng/g | DA in the brain tissue of reserpine mice [7, 11]: 1967.20 ± 562.57 ng/g | NA in the brain tissue of reserpine mice [7, 11]: 1326.48 ± 670.50 ng/g | 5-HT in the brain tissue of normal mice ([8]; 0.01 g/kg body weight): 841.85 ng/g | DA in the brain tissue of normal mice ([8]; 0.01 g/kg body weight): 1432.52 ± 395.77 ng/g | NA in the brain tissue of normal mice ([8]; 0.01 g/kg body weight): 896.46 ng/g | effect on 5-HT in brain tissue of normal mice (in words) [8, 12]: notably increase the level of 5-HT | effect on NA and DA in brain tissue of normal mice (in words) [8, 12]: increase the level of NA and DA | effect on 5-HTP-induced shaking-head behavior (in words) [9]: notably increase the times of 5-HTP-induced shaking-head behavior

CN(C)CCC=C1c2ccccc2CCc2ccccc21 [amitriptyline, Amitriptyline Hydrochloride]
Number of animals which close the eyelids at 1 h after the administration, ± (semi-open eyelids) ([4]; 0.050 g/kg body weight): 10 | Number of animals which close the eyelids at 1 h after the administration, − (open eyelids) ([4]; 0.050 g/kg body weight): 4 | Number of animals which close the eyelids at 1 h after the administration, □ (close eyelids) ([4]; 0.050 g/kg body weight): 1 | Number of animals which close the eyelids at 2 h after the administration, ± (semi-open eyelids) ([4]; 0.050 g/kg body weight): 11 | Number of animals which close the eyelids at 2 h after the administration, − (open eyelids) ([4]; 0.050 g/kg body weight): 2 | Number of animals which close the eyelids at 2 h after the administration, □ (close eyelids) ([4]; 0.050 g/kg body weight): 2 | Number of animals which close the eyelids at 6 h after the administration, ± (semi-open eyelids) ([4]; 0.050 g/kg body weight): 12 | Number of animals which close the eyelids at 6 h after the administration, − (open eyelids) ([4]; 0.050 g/kg body weight): 0 | Number of animals which close the eyelids at 6 h after the administration, □ (close eyelids) ([4]; 0.050 g/kg body weight): 3 | effect on reserpine-induced ptosis (in words) ([4]; 50 mg/kg body weight): antagonistic against reserpine-induced ptosis | Number of animals that have excircle behaviors at 2 h, Excircle (+) ([5]; 0.050 g/kg body weight): 15 | Number of animals that have excircle behaviors at 2 h, Within circle (□) ([5]; 0.050 g/kg body weight): 0 | Number of animals that have excircle behaviors at 4 h, Excircle (+) ([5]; 0.050 g/kg body weight): 13 | Number of animals that have excircle behaviors at 4 h, Within circle (□) ([5]; 0.050 g/kg body weight): 2 | Number of animals that have excircle behaviors at 6 h, Excircle (+) ([5]; 0.050 g/kg body weight): 13 | Number of animals that have excircle behaviors at 6 h, Within circle (□) ([5]; 0.050 g/kg body weight): 2 | effect on “excircle” rate of reserpine mice (in words) ([5]; 50 mg/kg body weight): notably increase the “excircle” rate | Body temperature difference, 6 h after making models [6, 13]: 2.38 ± 1.30 □ | Body temperature, 6 h after making models [6, 13]: 34.36 ± 1.12 □ | effect on fall in body temperature caused by reserpine (in words) ([6]; 50 mg/kg body weight): notably antagonize the fall in body temperature | effect on NA and DA in brain tissue of reserpine mice (in words) ([7]; 50 mg/kg body weight): notably enhance the level of NA and DA | 5-HT in the brain tissue of reserpine mice [7, 14]: 557.57 ± 174.75 ng/g | DA in the brain tissue of reserpine mice [7, 14]: 1806.61 ± 275.37 ng/g | NA in the brain tissue of reserpine mice [7, 14]: 1023.46 ± 619.56 ng/g | 5-HT in the brain tissue of normal mice ([8]; 0.05 g/kg body weight): 1015.17 ng/g | DA in the brain tissue of normal mice ([8]; 0.05 g/kg body weight): 1519.29 ± 373.72 ng/g | NA in the brain tissue of normal mice ([8]; 0.05 g/kg body weight): 803.54 ng/g | effect on 5-HT in brain tissue of normal mice (in words) [8, 15]: notably increase the level of 5-HT | effect on NA and DA in brain tissue of normal mice (in words) [8, 15]: increase the level of NA and DA

Source: US20100272837A1, “TRADITIONAL CHINESE MEDICINAL COMPOSITIONS FOR TREATING DEPRESSION , FORMULATION THEREOF, METHOD FOR PREPARING THE SAME THEREOF” (HEBEI YILING MEDICINE RESEARCH INSTITUTE CO. LTD., priority 2006, published 2010)
